Test results from patent US6573252B1, “Medicine nitrate salts” (priority 1998, dated 2003).
Where a name gives a salt, the structure may show the parent alone.

Columns and labels:
[1] = Gastric damage induced by Aspirin, Alendronate compared with Alendronate nitrate salt; conditions: rats, after Aspirin 125 mg/Kg, Alendronate dose 80 mg/Kg p.o.
Method: Prevention of the Gastric Damage Induced by Aspirin by Administering Alendronate in Comparison with Alendronate Nitrate Salt
Three groups of 5 rats each were treated by oral route with gastric probe as indicated hereinafter:
I group: treated with Alendronate (Alen.) at the dose of 80 mg/Kg.
II group: 1 h before the Alendronate 80 mg/Kg dose, ASpirin (Asp.) was supplied per os at the dose of 125 mg/Kg.
III group: 1 h before the Alendronate nitrate, (Alen.HNO3) corresponding to the Alendronate 80 mg/Kg dose, Aspirin was supplied per os at the dose of 125 mg/Kg.
The evaluation of the gastric damage was carried out sacrificing the animals three hours after the treatment with Alendronate or Alendronate nitrate.

[2] = tested on: myeloperoxydase (MPO); assay: Myeloperoxydase activity in intestinal tissue, acute colitis model (2,4,6-trinitrobenzensulphonic acid); assay type: in vivo; conditions: for Myeloperoxydase activity (unit/mg tissue): rectal route, amount corresponding to 100 mg/kg of 5-ASA, 6 administrations, intestinal tissue (wet)
Method: Myeloperoxydase Activity of the 5-Aminosalicylic Acid (4-nitroxy)butyl Ester Compared with that of the Corresponding Hydrochloride and Nitrate Salts, in an Acute Colitis Model
4 groups of 6 animals each have been formed. The groups were treated, respectively, with the carrier (carboxymethylcellulose aqueous solution 1%), 100 mg/Kg of 5-ASA, a 5-ASA-NO2.HCl amount corresponding to 100 mg/kg of 5-ASA, an amount of 5-ASA-NO2.HNO3 correspsonding to 100 mg/kg of 5-ASA.
The animals were treated by rectal route with the above compounds at zero time. After one hour the animals were treated with 0.5 ml of a 60 mg/ml solution of 2,4,6,trinitro-benzensulphonic acid in ethyl alcohol 50%. After two hours the animals were treated again by rectal route with the same compounds and at 12 hour intervals up to a total of 6 administrations.
The tissular levels of the myeloperoxydase (MPO) enzym have been measured which is an inflammatory process marker in various tissues, among which the bony-articular one (C. Rathakrishnan et Al., “Release of oxygen radicals by articular chondrocytes: A study of luminol-dependent chemiluminescence and hydrogen peroxide secretion” J. Bone Miner. Res. 7/10 1139-1148 1992).
The myeloperoxydase activity was measured by using a modified version of the experimental model described by Bradley et al. J. Invest. Dermatol. 78, 206-209, 1982. Samples of intestinal tissue were drawn from each animal, which were suspended in 0.1% of hexadecyltrimethylammonium bromide (50 mg/ml) at a pH 6 and homogenized for 15 seconds (Polytron® PT-7 generator). The samples were frozen and then defrosted three times subsequently before being centrifuged (9,000 g) for 2 minutes in an Eppendorf® Benchtop centrifuge. The myeloperoxydase activity was measured by adding 7 μl of the surnatant to 200 μl of o-dianisidine (Sigma) reactant and measuring the optical density variation at 450 nm in a two minute time in a Microtitre Multiscan®. The reactant contained 0.0005% of hydrogen peroxide as substratum for the myeloperoxydase enzym. One unity of the myeloperoxydase activity was defined as the one capable to convert an hydrogen proxide micromole to water in one minute at 22° C. The results are reported in Table II and are expressed as unit number of the myeloperoxydase activity/tissue mg (wet).

[3] = Gastric toxicity (gastric lesion incidence) after oral administration in fasted rats; assay type: in vivo; conditions: for Gastric damage (% incidence): rat, in vivo, po, 100 mg/kg
Method: Gastric Toxicity of Piroxicam Nitrate Salt (Ex. 1) Compared with Piroxicam
To 3 groups of 10 rats each, kept on empty stomach since 24 hours, orally are administered:
5 ml/Kg of carboxymethylcellulose aqueous suspension 2%.
an amount of nitrate Piroxicam corresponding to 100 mg/kg of Piroxicam in 5 ml/kg of carboxymethylcellulose aqueous suspension 2%.
an amount of hydrocloride Piroxicam corresponding to 100 mg/kg of Piroxicam in 5 ml/kg of carboxymethylcellulose aqueous suspension 2%.
Six hours later the animals are sacrificed and the gastric lesion incidence is evaluated.

[4] = Acute toxicity, single oral dose in rats; assay type: in vivo; conditions: single dose 100 mg/kg orally in carboxymethylcellulose aqueous suspension 2% w/v, observation for 14 days
Method: To a group of 10 rats weighing […] a single dose equal to 100 mg/kg of Piroxicam nitrate salt (Example 1), has been administered by cannula orally in a carboxymethylcellulose aqueous suspension 2% w/v.
The animals are kept under obsevation for 14 days.

Alendronate Nitrate Salt [Alen.HNO3]
reduction of the level of the gastric damage in comparison with Alendronate [1]: 4 to 5 times

Nc1ccc(O)c(C(=O)OCCCCO[N+](=O)[O-])c1.O=[N+]([O-])O [5-ASA-NO2.HNO3, Nitrate Salt of the 5-amino-2-hydroxybenzoic Acid (4-nitroxy)butyl Ester]
myeloperoxydase activity (comparison in words) ([2]; acute colitis model, compared with the other groups): lower than that of the other groups
pharmacological activity compared with the unsalified compound ([2]; pharmacological model indicated in the examples): more active than the unsalified compound
Myeloperoxydase activity (unit/mg tissue) [2]: 35 ± 13 unit/mg tissue

CN1C(C(=O)Nc2ccccn2)=C(O)c2ccccc2S1(=O)=O [Piroxicam.HCl, Piroxicam hydrochloride, reference compound]
Gastric damage (% incidence) ([3]; 6 h): 100%

Piroxicam Nitrate Salt [Piroxicam.HNO3]
Gastric damage (% incidence) [3]: 20%
gastric tolerability (comparison in words) ([3]; rats, 100 mg/kg p.o., compared with Piroxicam hydrochloride): improved gastric tolerability compared with Piroxicam hydrochloride
toxic symptom presence [4]: In no one of the animals of the group the toxic symptom presence was noticed

Cl.Nc1ccc(O)c(C(=O)OCCCCO[N+](=O)[O-])c1 [5-ASA-NO2.HCl, Hydrochloride Salt of the 5-Aminosalicylic Acid (4-nitroxy)-butyl Ester, reference compound]
Myeloperoxydase activity (unit/mg tissue) [2]: 111 ± 20 unit/mg tissue

Nc1ccc(O)c(C(=O)O)c1 [Example 5-ASA, 5-aminosalicylic acid, reference compound]
Myeloperoxydase activity (unit/mg tissue) [2]: 72 ± 15 unit/mg tissue
